These are literature values, as cited in patent US11318148B2, “Preservative-free treprostinil devices” (SteadyMed, Ltd., priority 2014, dated 2022).

Each structure is given as a SMILES string.

For data set [1] the following is noted: in vivo.
For data set [2] the following is noted: has to be kept on ice during administration.

As to `CCCCC[C@H](O)/C=C/[C@@H]1[C@H]2C/C(=C/CCCC(=O)O)O[C@H]2C[C@H]1O` [Flolan], in data set [1], the half-life (as a rule, the time in which the quantity being followed falls by half) is 3 to 5 min. For the same compound, the “stability at room temperature” value in data set [2] is “unstable at room temperature”.
